Data: paper PMC9598469, “Analysis of Antioxidant Constituents from Ilex rotunda and Evaluation of Their Blood–Brain Barrier Permeability” (Antioxidants, 2022)
Where two headings read alike, the source gives them in different places.

Experiments:
[1] = DPPH method on ELISA (96-well microplate) for isolated compounds; type: biochemical; conditions: compounds 2.5 to 40 μM, 30 min, 517 nm; read-out: EC50 Values (μM), DPPH radical
Experimental: The radical scavenging effect of 2,2-diphenyl-1-picrylhydrazyl (DPPH; Thermo Fisher Scientific, Ward Hill, MA, USA) was measured using our previous method. Briefly, 0.1 mL of each sample solution (dissolved in EtOH) was mixed with 0.1 mL of 0.2 mM DPPH and allowed to stand at RT for 30 min under shade. The absorbance at 517 nm was measured using a microplate spectrophotometer (Epoch, Biotek Instruments, Inc., Winooski, VT, USA). Ascorbic acid (100 μg/mL) (Sigma–Aldrich, Co., St. Louis, MO, USA) was used as a positive control. The percentage of DPPH reduction between the treated sample and negative control well was calculated with the following formula: %EC = (A control − A sample) * 100/(A control), where A sample was the absorbance of the sample and A control was the absorbance of untreated sample. Results are indicated as EC50, which correspond to the sample concentration (μg/mL) required to inhibition by 50% of the initial DPPH radical scavenging activity under the given experimental conditions.
(§1) An amount of 100 μL of the I. rotunda extract (1.3 mg/mL) dissolved in methanol and 100 μL of the DPPH solution (1.2 mg/mL in methanol) were mixed and incubated for 30 min at 37 °C, protected from light. After that, the mixture was filtered through a 0.22 μm filter for HPLC analysis. The control sample was prepared by mixing 100 μL methanol with 100 μL of the extract. Both mixtures were analyzed using the same established analytical methods. The outflow was monitored at 254 and 326 nm wavelength. […] The ELISA assay was performed by following procedure. A 100 μL of DPPH solution (0.2 mM) was added to 100 μL of the sample on a 96-well plate, mixed for 5 s, and reacted for 30 min under shade. The absorbance was measured at 517 nm using a microplate spectrophotometer (Epoch, Biotek Instruments, Inc., Winooski, VT, USA). […] Ascorbic acid (100 μg/mL) (Sigma–Aldrich, Co., St. Louis, MO, USA) was used as the positive control.

[2] = Parallel artificial membrane permeability assay for the blood–brain barrier (PAMPA-BBB); type: in vitro ADME; conditions: for Cross BBB Potential: single compounds at 10 mM, classification based on Könczöl et al.; for Papp at 4 h, 1 mM: single compounds at concentration of 10 mM (stock), read-out: BBB Permeability log Pe (converted)
Experimental: The PAMPA-BBB experiment was carried out according to the study by Könczöl et al.. A slightly modified version of the PAMPA-BBB was used to assess effective permeability (Pe, cm/s) of compounds of I. rotunda. Briefly, 20 μL of stock solution of I. rotunda extract (10 mg/mL in MeOH) or test compound (10 mM in MeOH) was mixed with 180 μL of phosphate buffered saline (PBS, pH 7.4, 10 mM) to obtain the starting donor solution. Subsequently, the filter membrane of the donor (top) plate (96-well polycarbonate-based filter plate, Multiscreen-IP, MAIPTR10, pore size 0.45 μm, Milipore) was coated with 5 μL of porcine polar brain lipid extract (PBLE) solution (16.0 mg PBLE + 8.0 mg cholesterol dissolved in 600.0 μL n-dodecane). Then, 150.0 μL of the filtrate was placed on the membrane. The bottom (acceptor) plate (96-well microtiter plate, Multiscreen®, MATRNPS50, Milipore) was filled with 300.0 μL buffer solution (PBS, pH 7.4, 10 mM). The donor plate was carefully located on the acceptor plate to form a “sandwich”. It was incubated at 37 °C for 4 h without direct right exposure. After incubation, PAMPA plates were separated. Concentrations of identified compounds of I. rotunda in the starting donor solution and in acceptor and donor wells were determined in triplicate based on chromatographic peak areas derived from the same established analytical methods. […] Pe=−ln1−CA(t)/Cequilibrium /A×1/VD1/VA×t where Pe is permeability in cm s^−1. A = effective filter area = f × 0.3 cm^2; VD = donor well volume = 150 μL; VA = acceptor well volume = 300 μL; t = incubation time (s) = 14,400; CA(t) = compound concentration in the acceptor well at time t; and CD(t) = compound concentration in the donor well at time t. Cequilibrium is calculated as follows: Cequilibrium=CD(t)×VD+CA(t)×VA/VD+VA

[3] = HPLC-DPPH screening: peak area reduction in I. rotunda twig extract; type: biochemical; conditions: between DPPH treated and untreated samples in the I. rotunda extract, untreated = 100%
Experimental: as §1

[4] = parameters: method as in PMID 23565574; conditions: cited from earlier work
[5] = I. rotunda extract test, t = 14,400 s

EC50 [1] [µM]	Compound	Cross BBB Potential [2]	Reduction of the Peak Area (%) [3] [%]	further results
22.6 ± 0.77	O=C1O[C@H]([C@@H](O)CO)C(O)=C1O [Ascorbic acid, reference compound]			
	COc1cc(/C=C/CO)cc(OC)c1O[C@@H]1O[C@H](CO)[C@@H](O)[C@H](O)[C@H]1O [Compound 1, Syringin]	- (not detected in acceptor or log Pe < −6.0)	6.98 ± 0.44	
	O=C(/C=C/c1ccc(O)c(O)c1)O[C@@H]1C[C@](O)(C(=O)O)C[C@@H](O)[C@H]1O [Compound 2, Chlorogenic acid]	- (not detected in acceptor or log Pe < −6.0)		BBB permeability (in words) [4]: poor permeability
	C[C@@H]1O[C@@H](OC[C@H]2O[C@@H](Oc3c(-c4ccc(O)c(O)c4)oc4cc(O)cc(O)c4c3=O)[C@H](O)[C@@H](O)[C@@H]2O)[C@H](O)[C@H](O)[C@H]1O [Compound 3, Rutin]	- (not detected in acceptor or log Pe < −6.0)	21.45 ± 0.90	BBB permeability (in words) [4]: poor permeability
	CC(=CCOC1OC(CO)C(O)C(O)C1O)COC(=O)C=Cc1ccc(O)c(O)c1 (stereo not drawn) [Compound 4, Rotundarpenoside B]	- (not detected in acceptor or log Pe < −6.0)	18.99 ± 0.90	
	O=C(C=Cc1ccc(O)c(O)c1)OC1CC(O)(C(=O)O)CC(O)C1OC(=O)C=Cc1ccc(O)c(O)c1 (stereo not drawn) [Compound 5, 3,4-Dicaffeoylquinic acid]	- (not detected in acceptor or log Pe < −6.0)	45.24 ± 0.67	
10.88 ± 0.04	O=C(/C=C/c1ccc(O)c(O)c1)O[C@@H]1C[C@](O)(C(=O)O)C[C@@H](OC(=O)/C=C/c2ccc(O)c(O)c2)[C@H]1O [Compound 6, 3,5-Dicaffeoylquinic acid]	- (not detected in acceptor or log Pe < −6.0)	58.88	Reduction of the Peak Area (%) ([3]; listed as 3,5-dicaffeoylquinic acid (6)): 58.88 ± 0.44%
13.8 ± 0.24	O=C(/C=C/c1ccc(O)c(O)c1)O[C@@H]1[C@H](O)C[C@@](O)(C(=O)O)C[C@H]1OC(=O)/C=C/c1ccc(O)c(O)c1 [Compound 7, 4,5-Dicaffeoylquinic acid]	+ (log Pe > −6.0)	83.67	Concentration of acceptor solution CA(t) [2, 5]: 6.62 µg/mL; Concentration of donor solution CD(t) [2, 5]: 287.86 µg/mL; BBB permeability (in words) ([2]; PAMPA-BBB, extract and 10 mM tests): moderate BBB permeability; Papp at 4 h, 1 mg/mL extract ([2]; PAMPA, compound within I. rotunda extract (10 mg/mL stock), pH 7.4, 37 °C, 4 h, read-out: BBB permeability log Pe (converted)): 1.58 ×10⁻⁶ cm/s; Papp at 4 h, 1 mM ([2]; PAMPA, pH 7.4, 37 °C, 4 h): 1.41 ×10⁻⁶ cm/s; Reduction of the Peak Area (%) ([3]; listed as 4,5-dicaffeoylquinic acid (7)): 83.67 ± 0.19%
10.9 ± 0.14	O=C(/C=C/c1ccc(O)c(O)c1)O[C@@H]1C[C@](O)(C(=O)O)C[C@@H](OC(=O)/C=C/c2ccc(O)c(O)c2)[C@H]1OC(=O)/C=C/c1ccc(O)c(O)c1 [Compound 8, 3,4,5-Tricaffeoylquinic acid]	- (not detected in acceptor or log Pe < −6.0)	67.25	Reduction of the Peak Area (%) ([3]; listed as 3,4,5-tricaffeoylquinic acid (8)): 67.25 ± 1.00%
	O=C(O)/C=C/c1ccc(O)c(O)c1 [caffeic acid, reference compound]	- (not detected in acceptor or log Pe < −6.0)		Papp at 4 h, 1 mM ([2]; PAMPA, pH 7.4, 37 °C, 4 h): 0.000832 ×10⁻⁶ cm/s
	O=c1ccc2ccccc2o1 [coumarin, reference compound]	++ (log Pe > −5.0)		Papp at 4 h, 1 mM ([2]; PAMPA, pH 7.4, 37 °C, 4 h): 28.8 ×10⁻⁶ cm/s
